Experimental data as given in patent US6407247B1, “Photo-stable cosmetic and pharmaceutical formulations containing UV-filters” (BASF Aktiengesellschaft, priority 1996, dated 2002).

Columns and labels:
[1] = UV absorption of the compounds of Table 2 (absorption maximum and specific extinction); format: physicochemical; parameters: λmax: unit not given beside the values; details: for λmax: UV absorption maximum; for E^11: specific extinction at λmax
[2] = used alone or in combination with UV-B filters; cited from earlier work

Row | Structure (SMILES) | λmax ([1]; Table 2) | E^11 ([1]; Table 2) | E^11 ([1]; Table 2, (water)) | photochemical stability [2]
1 | COc1ccc(OC)c(NC=C(C#N)C(=O)C(C)(C)C)c1 [Compound 14] | 362 | 491 |  | 
2 | CCCCOC(=O)c1ccccc1NC=C(C(C)=O)C(C)=O [Compound 25] | 344 | 938 |  | 
3 | CCCCC(CC)COC(=O)c1ccccc1NC=C(C(C)=O)C(=O)CC (stereo not drawn) [Compound 28] | 346 | 757 |  | 
4 | COc1cccc(NC=C(C(C)=O)C(C)=O)c1 [Compound 26] | 336 | 1035 |  | 
5 | CCCCOC(=O)c1ccccc1NC=C(C#N)C(=O)C(C)(C)C [Compound 21] | 346 | 825 |  | 
6 | COC(=O)c1ccccc1NC=C(C#N)C(=O)C(C)(C)C [Compound 19] | 348 | 995 |  | 
7 | CC(C)(C)C(=O)C(C#N)=CNc1ccccc1C(=O)O [Compound 15] | 346 | 965 |  | 
8 | CCCCC(CC)COC(=O)c1ccc(NC=C(C(C)=O)C(C)=O)cc1 (stereo not drawn) [Compound 27] | 346 | 1049 |  | 
9 | CC(C)(C)C(=O)C(C#N)=CNc1ccc(S(=O)(=O)O)cc1.OCCN(CCO)CCO [Compound 16] | 340 |  | 666 (water) | 
10 | COC(=O)/C(=C\Nc1ccccc1C(=O)OC)C(C)=O [Compound 30] | 344 | 1008 |  | 
11 | CCOc1ccccc1NC=C(C#N)C(=O)C(C)(C)C [Compound 18] | 352 | 876 |  | 
12 | CC(C)c1ccc(NC=C(C#N)C(=O)C(C)(C)C)cc1 [Compound 7] | 342 | 903 |  | 
13 | CCCCC(CC)COC(=O)c1ccccc1NC=C(C(C)=O)C(=O)OC(C)(C)C (stereo not drawn) [Compound 31] | 344 | 717 |  | 
14 | Cc1cccc(NC=C(C#N)C(=O)C(C)(C)C)c1 [Compound 2] | 338 | 978 |  | 
15 | CC(C)(C)C(=O)C(C#N)=CNc1ccc(C(C)(C)C)cc1 [Compound 4] | 342 | 888 |  | 
16 | CC(C)COC(=O)c1ccccc1NC=C(C#N)C(=O)C(C)(C)C [Compound 20] | 348 | 864 |  | 
17 | CCCCC(CC)CNC(=O)c1ccc(NC=C(C#N)C(=O)C(C)(C)C)cc1 (stereo not drawn) [Compound 6] | 346 | 773 |  | 
18 | CC(C)(C)C(=O)C(C#N)=CNc1ccccc1C#N [Compound 10] | 338 | 995 |  | 
19 | CC(C)(C)C(=O)C(C#N)=CNc1ccccc1C(=O)O.OCCN(CCO)CCO [Compound 13] | 346 |  | 667 (water) | 
20 | COc1ccc(C(=O)CC(=O)c2ccc(C(C)(C)C)cc2)cc1 [PARSOL 1789, 4-(1,1-dimethylethyl)-4-methoxy-dibenzoylmethane] |  |  |  | not sufficiently photochemically stable
21 | CCCCC(CC)COC(=O)c1ccc(NC=C(C#N)C(=O)C(C)(C)C)cc1 (stereo not drawn) [Compound 1] | 346 | 860 |  | 
22 | CC(C)Oc1cccc(NC=C(C#N)C(=O)C(C)(C)C)c1 [Compound 12] | 340 | 829 |  | 
23 | CCCc1ccc(NC=C(C#N)C(=O)C(C)(C)C)cc1 [Compound 8] | 342 | 918 |  | 
24 | CCCCC(CC)COC(=O)c1ccc(NC=C(C(C)=O)C(=O)OC)cc1 (stereo not drawn) [Compound 29] | 346 | 941 |  | 
25 | CC(C)(C)C(=O)C(C#N)=CNc1ccc(S(=O)(=O)[O-])cc1.[Na+] [Compound 17] | 340 |  | 1010 (water) | 
26 | CCCCc1ccc(NC=C(C#N)C(=O)C(C)(C)C)cc1 [Compound 5] | 342 | 884 |  | 
27 | COc1ccc(NC=C(C#N)C(=O)C(C)(C)C)cc1 [Compound 3] | 348 | 841 |  | 
28 | CCCCC(CC)COC(=O)c1ccccc1NC=C(C#N)C(=O)C(C)(C)C (stereo not drawn) [Compound 9] | 348 | 717 |  | 

Second part, led by results:

Row | λmax ([1]; Table 2) | E^11 ([1]; Table 2) | Structure (SMILES) | E^11 ([1]; Table 2, (water)) | photochemical stability [2]
29 | 358 | 743 | CCCCC(CC)COC(=O)c1ccccc1NC=C1CCC(C)(C)CC1=O (stereo not drawn) [Compound 40] |  | 
30 | 335 | 630 | CCCCC(CC)COC(=O)c1ccccc1NC=C(C(=O)OCC)C(=O)OCC (stereo not drawn) [Compound 38] |  | 
31 | 322 | 761 | CCCCC(CC)COC(=O)C(C#N)=CNc1cc(OC)cc(OC)c1 (stereo not drawn) [Compound 34] |  | 
32 | 332 | 1105 | CCCCC(CC)COC(=O)C(C#N)=CNc1ccc(C(=O)OCC)cc1 (stereo not drawn) [Compound 35] |  | 
33 | 374 | 1175 | CCCCC(CC)COC(=O)c1ccc(NC=C2C(=O)c3ccccc3C2=O)cc1 (stereo not drawn) [Compound 42] |  | 
34 | 330 | 1191 | CCCCC(CC)COC(=O)c1ccc(NC=C(C#N)C#N)cc1 (stereo not drawn) [Compound 41] |  | 
35 | 362 | 869 | CCCCC(CC)COC(=O)c1ccc(NC=C(C#N)C(=O)c2ccccc2)cc1 (stereo not drawn) [Compound 43] |  | 
36 | 346 | 646 | CCCCC(CC)COC(=O)C(C#N)=CNc1ccc(OC)cc1OC (stereo not drawn) [Compound 32] |  | 
37 | 336 | 752 | CCCCC(CC)COC(=O)C(C#N)=CNc1ccccc1C(=O)OC (stereo not drawn) [Compound 36] |  | 
38 | 336 | 896 | CCCCC(CC)COC(=O)c1ccc(NC=C2C(=O)OC(C)(C)OC2=O)cc1 (stereo not drawn) [Compound 44] |  | 
39 | 336 | 890 | CCOC(=O)C(=CNc1ccccc1C(=O)OC)C(=O)OCC [Compound 37] |  | 
40 | 320 | 700 | CCCCC(CC)COC(=O)c1ccc(NC=C(C(=O)OCC)C(=O)OCC)cc1 (stereo not drawn) [Compound 39] |  | 
41 | 350 | 612 | CCCCC(CC)COC(=O)C(C#N)=CNc1cc(OC)ccc1OC (stereo not drawn) [Compound 33] |  | 
